Assay results taken from ChEMBL document CHEMBL1221189, “Structural basis for macrolactonization by the pikromycin thioesterase” (Nat Chem Biol, 2006).
Activity calls are given as the source filed them. The calls are words filed in the database; no cut-off is given here.

Key:
Streptomyces venezuelae [1] = assay: Inactivation of pikromycin thioesterase in Streptomyces venezuelae assessed as rate of enzymatic hydrolysis of p-nitrophenylpropionate after 8 hrs
Streptomyces venezuelae [2] = assay: Inactivation of pikromycin thioesterase in Streptomyces venezuelae assessed as rate of enzymatic hydrolysis of p-nitrophenylpropionate at 2 mM after 6 hrs
Streptomyces venezuelae [3] = assay: Inactivation of pikromycin thioesterase in Streptomyces venezuelae assessed as rate of enzymatic hydrolysis of p-nitrophenylpropionate at 2 mM; conditions: TDE = time-dependent effect
Streptomyces venezuelae [4] = assay: Inactivation of pikromycin thioesterase in Streptomyces venezuelae assessed as rate of enzymatic hydrolysis of p-nitrophenylpropionate at 2 mM after 50 mins

CC[C@H](O)[C@@H](C)C(=O)CP(=O)(Oc1ccccc1)Oc1ccccc1
Activity (Streptomyces venezuelae [1]): Active

C[C@@H](CO)C[C@H](C)[C@H](O)[C@@H](C)C(=O)CP(=O)(Oc1ccccc1)Oc1ccccc1
Activity (Streptomyces venezuelae [2]): Active | Activity (Streptomyces venezuelae [3]): tde | fold change (FC) (Streptomyces venezuelae [4]): 2
